Measurements as given in patent publication US5821231A, “CS-1 peptidomimetics, compositions and methods of using same” (Cytel Corporation, priority 1995, dated 1998).
Square brackets hold non-standard residues; d marks the D form. Peptide text beside a SMILES is read from it. * marks the point of attachment. NMeD = CN[C@@H](CC(=O)O)C(=O)O; Morpholide = C1CN(*)CCO1; PhAc = O=C(Cc1ccccc1)*

Assays:
[1] = test system: New Zealand white rabbits; test: Treatment of asthmatic rabbits (house dust mite antigen challenge, crossover); type: in vivo, rabbit; conditions: 100 mg/kg nebulizer
Procedure: Six New Zealand white rabbits were immunized with house dust mite antigen from birth through four months of age. Upon immunization, three rabbits received a single nebulizer administration of the inhibitor compound, Compound ID No. 1051.01, N-phenylacetyl-Leu-Asp-Phe-morpholinamide in aqueous 50 percent ethanol as diluent in an amount of 100 mg/kg, and the other three received diluent alone. All of the rabbits were challenged with house dust mite antigen about 15-30 minutes after administration of the compound, with those animals not receiving compound serving as controls.
Once immunized and challenged, the inflammatory state subsides to a basal level within about three weeks. The three animals used as controls were thereafter used as subjects for receipt of an inhibitor compound, and the three rabbits that initially received the compound can serve as controls.
Such a crossover study was done here. […]
Initial pulmonary function, measured by dynamic compliance (Cdyn) and lung resistance (RL), and bronchoalveolar lavage (BAL) to obtain an effector cell count, here eosinophils, were conducted prior to administration of the compound or diluent for both portions of this crossover study. […]

BALB/c mice = test: Adoptive transfer delayed type hypersensitivity in mice (oxazolone); type: in vivo, mouse; conditions: expanded study; versus vehicle alone
Procedure: An adoptive transfer delayed-type hypersensitivity murine model has been developed using splenic T cells primed to oxazolone. This model is described in Elices et al., Clin. Exp. Rheum., 11(Suppl. 8):577-580 (1993), whose procedures were followed here.
Thus, BALB/c mice were shaved on the belly and painted (50 μl on the belly and 5 μl on each paw) with three percent oxazolone in acetone/olive oil (4:1) at days zero and 1. At day 5, the mice were sacrificed, their spleens removed, and splenic T cells were obtained via nylon wool columns.
Normal saline or saline containing 25×10^6 /animal of the oxazolone-immune T cells were separately injected into naive mice. The mice were then challenged by painting 10 μl of 2 percent oxazolone onto one ear each. All procedures were carried out under sterile conditions and in endotoxin-free buffers.
Prior to challenge or saline injection, the mice were implanted with pumps that subcutaneously administered normal saline, normal saline containing the compound, Compound ID No. 896.52, N-phenylacetyl-Leu-Asp-Phe-D-Pro-NH2, or normal saline containing a compound with a scrambled sequence continually at 6 mg/kg/day for a 24-hour time period. The swelling diameter at the site of challenge or saline injection was measured with a microcaliper 24 hours thereafter.
An expanded study was carried out as described above except that a scrambled compound control was not used as a control for further inhibitor compounds of Table 1 with larger groups of mice. Statistical analyses were carried out versus injection of vehicle alone.

VLA-4 [2] = molecular target: T1, VLA-4 (Homo sapiens, UniProt P05556+P13612); test: In vitro binding assay: 51Cr-labeled Jurkat cells to solid phase-bound CS-1 compound (SEQ ID NO:1); type: cell-based; set-up: inflammatory cells that contain the VLA-4 receptor [Jurkat cells; host or cells: Jurkat cells (human T lymphoblastic line); conditions: binding inhibition potency (IC50) relative to standard compound of SEQ ID NO:3 = 1; about one-tenth or less assigned zero
Procedure: Binding inhibition is measured here as a concentration of compound that inhibits one-half the binding between a standard number of Jurkat cells and a standard amount of CS-1 compound bound to the surface of a microtiter plate well. Those concentrations are conveniently expressed as IC50 values, smaller numbers indicating a lower concentration required to inhibit 50 percent binding and therefore greater potency. Further specifics of this assay are provided hereinafter.
Jurkat cells (ATCC TIB 152), a human T lymphoblastic line, labeled with ^51 chromium were used to assay in vitro binding inhibition provided by various compounds discussed herein.
The plates were prepared as follows: The 25-mer CS-1 compound (SEQ ID NO:1) dissolved at 0.5-1 μg/ml in a buffer of 0.1M NaHCO3 at pH 9.5 that also contained 10 μg/ml of bovine serum albumin (BSA) or a conjugate of the CS-1 compound linked to ovalbumin (CS-1-OVA) dissolved at 1-2.5 μg/ml in the same buffer was used as the substrate. Each well of the microtiter plates was coated with 50 μl of substrate or buffer alone for controls. The wells were permitted to dry out completely and were then rinsed twice with PBS at pH 7.4. Non-specific binding sites of each well were then blocked using 200 μl per well of RPMI/1 percent BSA for two hours at room temperature.
Jurkat cells (3-5×10^6 cells) were placed into a 15 ml Falcon™ round-bottom tube with a cap. The tube was centrifuged, and the extra medium was then removed.
Two hundred microliters of a ^51 Cr labeling solution were added to the centrifuged cells and maintained in contact with the cells for 90-120 minutes in a warm room. […] Longer contact times provide a greater amount of labeling but lower cell viability.
The labeled cells are washed with (i) complete medium, (ii) 1 mM EDTA/PBS and then (iii) RPM1/1 percent BSA free of serum components. The cells are centrifuged after each washing. The cells are finally resuspended in serum-free RPMI/1 percent BSA at a concentration of 1×10^6 viable cells/ml, which provides a concentration that is diluted by one-half in the assay.
Inhibitor compounds are prepared as stock solutions at 20 mg/ml in DMSO in 1.5 ml cryogenic screwcap vials, and were stored at -70° C. Using Flow™ round-bottom or V-bottom microtiter plates, the inhibitor compounds were prepared at twice the assay concentration in RPMI/1 percent BSA at 60 μl/well.
Four initial dilutions were typically used.
The ^51 Cr-labeled cells ([…] at 60 μl/well) were then admixed with the diluted compound solutions. The admixtures were maintained at room temperature (about 22° C.) for 30 minutes.
One hundred microliters of each inhibitor compound/cell admixture were transferred to the substrate-coated wells. This was done in triplicate for each dilution. The resulting plates were incubated for 30 minutes at 37° C. and then washed gently three times with RPMI/1 percent BSA at 200 μl/well. Binding was observed microscopically, particularly after the second wash.
The bound cells were then lysed by the addition of a 0.5 percent solution of sodium dodecylsulfate in water at 100 μl/well. The resulting solutions were then processed for counting and calculation of IC50 values following usual procedures.
The data of Table 1 are normalized to the binding of SEQ ID NO: 3. […] Multiple assays for the same compound were averaged.

Jurkat T cell line = test: Jurkat cell binding to frozen human rheumatoid arthritis synovial sections; type: cell-based; conditions: 10-mer at 500 μg/ml
Procedure: Binding studies were carried out using the Jurkat T cell line and frozen RA synovial sections. […] Stimulated MOLT-4 cells behaved similarly.
The absolute value of that IC50 value is about 0.5 μmolar.

immune T cells = conditions: about 50 μg/ml admixed with immune T cells; Ferguson et al.; cited from earlier work
VLA-4 [3] = molecular target: T1, VLA-4; conditions: cited from earlier work

T1 sequence (P13612 34-1032): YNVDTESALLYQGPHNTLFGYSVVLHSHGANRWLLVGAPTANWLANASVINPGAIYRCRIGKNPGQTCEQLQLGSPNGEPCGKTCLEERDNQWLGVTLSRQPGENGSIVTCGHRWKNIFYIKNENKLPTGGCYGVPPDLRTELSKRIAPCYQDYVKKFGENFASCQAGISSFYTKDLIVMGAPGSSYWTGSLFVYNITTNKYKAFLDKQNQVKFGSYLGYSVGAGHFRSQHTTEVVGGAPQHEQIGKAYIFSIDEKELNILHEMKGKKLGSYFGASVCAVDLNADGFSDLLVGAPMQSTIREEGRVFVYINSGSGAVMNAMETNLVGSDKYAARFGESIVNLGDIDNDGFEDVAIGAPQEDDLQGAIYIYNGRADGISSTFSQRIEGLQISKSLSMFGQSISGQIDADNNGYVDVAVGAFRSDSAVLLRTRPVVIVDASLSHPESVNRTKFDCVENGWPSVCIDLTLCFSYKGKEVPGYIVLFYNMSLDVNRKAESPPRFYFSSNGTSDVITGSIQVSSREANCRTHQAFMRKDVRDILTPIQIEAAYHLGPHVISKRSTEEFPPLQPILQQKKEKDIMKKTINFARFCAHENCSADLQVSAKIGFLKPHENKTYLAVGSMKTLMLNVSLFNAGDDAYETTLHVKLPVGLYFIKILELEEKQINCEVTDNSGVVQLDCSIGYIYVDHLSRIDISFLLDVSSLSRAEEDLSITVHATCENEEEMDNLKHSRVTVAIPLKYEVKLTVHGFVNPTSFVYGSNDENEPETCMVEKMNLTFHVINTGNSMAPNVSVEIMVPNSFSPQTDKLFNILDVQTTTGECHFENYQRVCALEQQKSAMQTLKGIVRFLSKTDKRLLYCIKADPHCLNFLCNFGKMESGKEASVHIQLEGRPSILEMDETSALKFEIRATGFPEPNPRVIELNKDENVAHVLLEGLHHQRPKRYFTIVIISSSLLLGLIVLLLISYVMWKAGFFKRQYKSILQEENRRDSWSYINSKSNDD
T1 sequence (P05556 21-798): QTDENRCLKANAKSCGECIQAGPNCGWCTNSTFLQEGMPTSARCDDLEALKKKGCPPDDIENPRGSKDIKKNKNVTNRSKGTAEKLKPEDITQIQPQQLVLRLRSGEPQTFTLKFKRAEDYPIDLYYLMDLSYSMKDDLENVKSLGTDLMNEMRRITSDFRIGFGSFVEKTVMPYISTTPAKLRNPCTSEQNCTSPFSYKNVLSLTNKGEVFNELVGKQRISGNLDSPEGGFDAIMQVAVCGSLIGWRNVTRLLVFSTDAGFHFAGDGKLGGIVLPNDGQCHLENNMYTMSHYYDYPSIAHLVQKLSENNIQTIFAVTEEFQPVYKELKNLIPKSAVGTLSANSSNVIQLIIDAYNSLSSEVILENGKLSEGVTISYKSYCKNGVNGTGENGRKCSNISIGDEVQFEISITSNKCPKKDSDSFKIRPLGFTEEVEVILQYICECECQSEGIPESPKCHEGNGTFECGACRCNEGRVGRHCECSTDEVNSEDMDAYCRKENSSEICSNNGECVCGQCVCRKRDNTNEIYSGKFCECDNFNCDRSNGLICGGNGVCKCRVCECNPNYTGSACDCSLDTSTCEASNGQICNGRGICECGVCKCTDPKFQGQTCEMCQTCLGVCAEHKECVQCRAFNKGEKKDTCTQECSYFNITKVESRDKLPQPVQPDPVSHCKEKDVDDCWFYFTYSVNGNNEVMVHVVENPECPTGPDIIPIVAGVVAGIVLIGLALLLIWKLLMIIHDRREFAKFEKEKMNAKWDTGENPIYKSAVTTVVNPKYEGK

CC(C)C[C@H](NC(=O)Cc1ccccc1)C(=O)N[C@@H](CC(=O)O)C(=O)N[C@@H](Cc1ccccc1)C(=O)N1CCOCC1 [1051.01, N-phenylacetyl-Leu-Asp-Phe-morpholinamide] (PhAc-Leu-Asp-Phe-Morpholide)
Cdyn value over six hours after challenge ([1]; FIG. 4A): stayed at about the initial value | RL values over six hours after challenge ([1]; FIG. 4B): remained between the initial value and about 200% of that value

CC(C)C[C@H](NC(=O)Cc1ccccc1)C(=O)N[C@@H](CC(=O)O)C(=O)N[C@@H](Cc1ccccc1)C(=O)N1CCC(O)CC1 [1070.02, .phi.Ac--Leu--Asp--Phe-4-hydroxpiperidinamide]
Percent Inhibition (post-challenge swelling) (BALB/c mice): 29%

CC(C)C[C@H](NC(=O)Cc1ccccc1)C(=O)N[C@@H](CC(=O)O)C(=O)N[C@@H](Cc1ccccc1)C(=O)N1CCN(CC(=O)O)CC1 [1111.06, .phi.Ac--Leu--Asp--Phe-4-N(carboxymethyl)piperazinamide]
Relative Potency (VLA-4 [2]): 2600 | Percent Inhibition (post-challenge swelling) (BALB/c mice): 30%

CC(C)C[C@H](NC(=O)Cc1ccccc1)C(=O)N(C)[C@@H](CC(=O)O)C(=O)N[C@@H](Cc1ccccc1)C(=O)N1CCC[C@@H]1C(N)=O [1190.06] (PhAc-L[NMeD]F[dP]-NH2)
Relative Potency (VLA-4 [2]): 0

CC[C@H](C)[C@H](NC(=O)[C@H](CCC(=O)O)NC(=O)[C@@H]1CCCN1C(=O)CN)C(=O)N[C@@H](CC(C)C)C(=O)N[C@@H](CC(=O)O)C(=O)N[C@H](C(=O)N1CCC[C@H]1C(=O)N[C@@H](CO)C(=O)N[C@H](C(=O)O)[C@@H](C)O)C(C)C [SEQ ID NO:3, GPEILDVPST] (H-GPEILDVPST-OH)
inhibition of Jurkat cell adhesion to RA synovial sections (Jurkat T cell line): could be inhibited | abrogation of a transferred immune response (immune T cells): could abrogate a transferred immune response

Leu-Asp-Val [LDV]
affinity of VLA-4 relative to native CS-1 25-mer (VLA-4 [3]): at least two orders of magnitude lower affinity
